From US9408910B2, “Anticancer prodrug activated by radiation or ultraviolet treatment and use thereof” (priority 2011, dated 2016)
Numbered stars: 1 amine (or outer) side, 2 acyl side, 3 side chain; on linkers, the order of the positions; unused ones are H or OH. Square brackets hold non-standard residues; d marks the D form. Peptide text beside a SMILES is read from it. * marks the point of attachment. Doxorubicin(3'-N) = COc1cccc2c1C(=O)c1c(O)c3c(c(O)c1C2=O)C[C@@](O)(C(=O)CO)C[C@@H]3O[C@H]1C[C@H](N*)[C@H](O)[C@H](C)O1; PABC = O=C(OCc1ccc(N[*:1])cc1)[*:2]

Legend:
SCC 7 cells = experiment: Cytotoxicity evaluation by in vitro MTT assay (Example 4); format: cell-based; conditions: no caspase-3 expression
Description: Cytotoxicity was evaluated by in vitro MTT assay.
In detail, SCC 7 cells were radiated at a dose of 1 Gy, 5 Gy, or 10 Gy, and then the medium was removed after 2 h, 6 h, 12 h, 24 h, or 48 h. 20 μl of MTT solution per 100 μl of medium was treated, and then reacted at 30° C. for 1 hour in the dark. Thereafter, the cells were washed with PBS three times, and the medium was removed. 100 μl of DMSO was added to dissolve MTT formazan, followed by ELASA (test wavelength: 570 nm).
That is, total 6 experiments were carried out, and the results are shown FIGS. 9a to 9f. a) Radiation of cells at a radiation dose of 1 Gy, 5 Gy, 10 Gy, 15 Gy, 20 Gy, followed by MTT assay (radiation MTT assay), b) Treatment of cells with doxorubicin at a dose of 0.1 μM, 0.5 μM, 1 μM, and 5 μM, followed by MTT assay (Doxorubicin MIT assay), c) Treatment of cells with anticancer prodrug (KGDEVD-DOX) prepared in Example 1, followed by MTT assay (KGDEVD-DOX MTT assay), d) Treatment of cells with caspase-3-treated anticancer prodrug (KGDEVD-DOX) prepared in Example 1, followed by MIT assay (Cleaved Dox by Caspase-3 MIT assay), e) Treatment of cells with doxorubicin and radiation, followed by MIT assay (Doxorubicin+RT MTT assay), f) Treatment of cells with […], followed by MTT assay (KGDEVD-DOX+RT MTT assay). […]

[1] = system: tumor mouse models transplanted with SCC 7 cell line; conditions: 5 Gy radiation, then 10 mg/kg i.v. every day for 3 days; FIG. 18
Description: That is, tumor mouse models transplanted with SCC 7 cell line were radiated using a gamma knife (5 Gy). 24 hrs after radiation, the caspase-3 sensitive anticancer prodrug was administered into the animals via intravenous injection (10 mg/kg). At this time, the same dose of the drug was administered into the animals every day for 3 days, and then tumor growth and survival rate were measured every day until the experiments were terminated after radiation. The organs were removed from each experimental group after completion of the experiment, and cytotoxicity of the drug was examined.

[2] = system: tumor mouse models transplanted with SCC 7 cell line; experiment: Anti-tumor therapeutic effect of the anticancer prodrug with radiation (Example 3); format: in vivo; conditions: administered together with radiation (5 Gy, gamma knife); prodrug 3 mg/kg i.v. 24 hr after radiation and again after 2 days; FIG. 8

| Structure (SMILES) | cytotoxicity when caspase-3 was not expressed (SCC 7 cells) | side effects (cytotoxicity of the drug in removed organs) [1] | tumor size (tumor growth) [2] |
| --- | --- | --- | --- |
| COc1cccc2c1C(=O)c1c(O)c3c(c(O)c1C2=O)C[C@@](O)(C(=O)CO)C[C@@H]3O[C@H]1C[C@H](NC(=O)OCc2ccc(NC(=O)[C@H](CC(=O)O)NC(=O)[C@@H](NC(=O)[C@H](CCC(=O)O)NC(=O)[C@H](CC(=O)O)NC(=O)CNC(=O)[C@H](CCCCN)NC(C)=O)C(C)C)cc2)[C@H](O)[C@H](C)O1 [KGDEVD-DOX, Ac-Lys-Gly-Asp-Glu-Val-Asp-PABC-DOX] (Ac-KGDEVD[PABC]-{Doxorubicin(3'-N)}) | no cytotoxicity | reduced side effects | – |
| COc1cccc2c1C(=O)c1c(O)c3c(c(O)c1C2=O)C[C@@](O)(C(=O)CO)C[C@@H]3O[C@H]1C[C@H](N)[C@H](O)[C@H](C)O1 [doxorubicin] | – | – | tumor was reduced in size |
